Results from US6740304B2, “Receptor binding conjugates” (priority 1999, dated 2004).

Biological target: T1, folate binding protein (FBP) (Bos taurus, UniProt P02702)
T1 construct: purchased Sigma
Test: Binding assay on immobilised folate binding protein (Scatchard type plot)
Conditions: Scatchard type plot (FIG. 1), for the conjugate assuming at least one binding-reactive folic acid per HIgG
Excerpt: Immobilised folate binding protein (FBP) was used to investigate the binding characteristics of the folic acid conjugates. FBP (Sigma) with a binding capacity of […] folic acid per milligram protein was immobilised on high protein binding 96 well EIA/RIA assay plates (Costar Corning Inc. N.Y., USA)
FBP was labelled with ^125I by the Iodogen method and the labelled protein was isolated by eluting the reaction mixture on a PD-10 column. Purified ^125I-FBP in concentrations ranging form […] in PBS were added in to the 96 well assay plates and incubated on a rotating rack at 4° C. overnight. […] The immobilised quantities of the various concentrations of quadruplicates of ^125I FBP was determined as the ratio of L3/L1+L2 after measuring the radioactivity of the respective samples by liquid scintillation counting.
Wells were incubated with a solution of FBP in PBS and washed three times with PBS after removal of the incubation mixture. […] The specifically bound fraction of folic acid was determined by a similar method as described for ^125I-FBP, correcting for the faction of ^3H-FA retained in the wells that were preincubated with folic acid. […]
The specifically bound ^3H-FA was plotted against the concentration of ^3H-FA in a Scatchard type plot (FIG. 1). […] The following values were determined from the binding assay: […]

T1 sequence (P02702 20-234): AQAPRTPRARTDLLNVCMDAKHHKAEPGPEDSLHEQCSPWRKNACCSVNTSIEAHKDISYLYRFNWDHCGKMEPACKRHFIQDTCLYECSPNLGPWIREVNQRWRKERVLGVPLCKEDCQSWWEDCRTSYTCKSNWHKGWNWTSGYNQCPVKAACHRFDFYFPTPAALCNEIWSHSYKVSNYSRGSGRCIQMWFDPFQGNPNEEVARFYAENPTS

^3H-Folic acid [^3H-FA] was tested. Which Ka did it give?
The Ka was 2×10^8.
